Data as given in the METLIN SMRT retention time set (Domingo-Almenara et al. 2019).

Assay: gradient 5% acetonitrile 3 min, to 50% in 2 min, to 85% in 15 min, held 3 min, 100 µL/min
Conditions: column: Zorbax Extend-C18 2.1 x 50 mm; eluents: water / acetonitrile, 0.1% formic acid
How it was run: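 A Zorbax Extend-C18 column (2.1 × 50 mm, 1.8 μm) run at 100 μL/min with water and acetonitrile, both containing 0.1% formic acid, separated mixtures of ~100 pure standards. The HPLC was coupled to a quadrupole time-of-flight mass spectrometer operated in positive and negative ionization mode, with dead and dwell volumes of 40 μL and 900 μL. Each retention time was taken from a computationally picked adduct peak that was then manually inspected.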

SMILES	RP-LC retention time
COc1cccc(NC(=O)N2CCN(c3ccc(Nc4cc(C)ccn4)nn3)CC2)c1	588 s
CCOC(=O)c1cc(S(=O)(=O)N2CCCC2C(=O)Nc2ccc(C(C)C)cc2)cn1C (configuration not stated)	1070 s
COc1ccc(CCC(=O)NC2CCN(c3nnc4ccc(C(F)(F)F)cn34)CC2)cc1	767 s
CCC(C)NC(=O)c1cnn(-c2cc(-c3nc(C(C)(C)C)no3)ccn2)c1C (configuration not stated)	711 s
Cc1[nH]c(=O)[nH]c(=O)c1CC(=O)N1CCN(c2cccc(Cl)c2Cl)CC1	654 s
CC1CCN(C(=O)CSCc2nc3cccnc3n2C2CCCCC2)CC1	960 s
Cc1cc(OCC(=O)N2CCCCC2)nc(-c2ccc(Cl)cc2)n1	790 s
CCCN1C(=O)c2c(C(=O)NCc3cccc(C)c3)ncn2CC1(C)C(=O)NC1CCCC1 (configuration not stated)	851 s
Cc1nc(N2CCN(c3ncccn3)CC2)nc2c1C(=O)CC(c1ccc(F)cc1)C2 (configuration not stated)	1190 s
O=C(CN1CC=C(c2cnn(-c3ccc(F)cc3)c2)CC1)NCc1ccco1	658 s
CC1CCN(c2cncnc2-n2cc(NC(=O)NC3CCCCC3)cn2)CC1	744 s
O=C(C1=CN(c2ccc(Cl)cc2)c2cc(F)ccc2S1(=O)=O)N1CCCC1	858 s
Cc1ccc2[nH]cc(CCN3CC(C(=O)NC4CCCCC4)CC3=O)c2c1 (configuration not stated)	819 s
COc1cccc(CNC(=O)C2(C)CCN(C(=O)Nc3cc(OC)c(OC)c(OC)c3)CC2)c1	732 s
CC1CN=C2C=C(N3CCN(C(=O)NCc4cccc(F)c4)CC3)N=CN21 (configuration not stated)	605 s
O=C(NC1CCCCC1)c1ccc2ncnc(N3CCCC3)c2c1	636 s
CCOc1ccc(CN2CCC3(CC2)CC(O)CCO3)cc1OC (configuration not stated)	583 s
CCCS(=O)(=O)N1CC(=O)N(c2cccc(Cl)c2C)C(C)(C(=O)NC2CCCCC2)C1 (configuration not stated)	1010 s
O=C(NC1CCCC1)c1nnc(-c2ccc(S(=O)(=O)N3CCCCC3)cc2)o1	960 s
COc1ccc(S(=O)(=O)N2CCCC(C(=O)NC(C)(C)C)C2)cc1OC (configuration not stated)	707 s
COc1ccc(C(=O)c2cnc3ccc(OC)cc3c2N2CCN(C)CC2)cc1	561 s
O=C(NCCCCCCCCNC(=O)c1cccc2ccccc12)c1cccc2ccccc12	1010 s
Cc1ccc(-c2nc(C3CC(=O)N(c4ccc(F)c(Cl)c4)C3)no2)c(C)c1 (configuration not stated)	1250 s
COc1ccc2[nH]c3c(c2c1)CCNC31CCN(Cc2ccc(F)cc2F)CC1	580 s
CCN1c2ccccc2C(=O)NC12CCN(C(=O)c1cc(OC)cc(OC)c1)CC2	771 s

SMILES	RP-LC retention time
Cc1ccc2cc(CCC(=O)N3CCCN(c4ncccn4)CC3)c(=O)[nH]c2c1	676 s
O=C(NC1CC1)C1CCN(S(=O)(=O)Cc2ccc(Cl)cc2)CC1	735 s
COc1cc(NS(=O)(=O)c2ccc3c(c2)-c2oncc2CO3)cc(OC)c1OC	805 s
N#Cc1ccc(C(=O)NCc2[nH]nc3ccccc23)cc1	699 s
CCc1ccc(C2=C(C)C(N3CCCN(C(=O)NCCOC)CC3)=NS2(=O)=O)cc1	731 s
CN1C2CCC1CC(OC(=O)[C@H](CO)c1ccccc1)C2 (some centres not stated)	667 s
CCOC(=O)c1c(C)n(C)c2ccc(OCC(O)CN3CCOCC3)cc12 (configuration not stated)	630 s
Cc1cc(C)c(S(=O)(=O)NCCn2c(C)cnc2C2CCC2)cc1C	696 s
O=c1c2ccccc2c2ccccc2c(=O)n1Cc1ccco1	966 s
O=C(COc1ccccc1F)NCC1(c2cccs2)CCOCC1	790 s
CC1(C)Cc2cccc(OCC(=O)N3CCN(CCn4cccn4)CC3)c2O1	583 s
CC1CCN(C(CNC(=O)c2cc(-c3ccc4c(c3)OCCO4)on2)c2ccco2)CC1 (configuration not stated)	720 s
Cc1cc(-c2nnc(-c3ccco3)o2)c(C)n1CC(=O)Nc1cccc(Cl)c1	920 s
O=C(N[C@H]1C[C@@H]2C[C@H]1CN2C(=O)Cc1ccc(OC(F)(F)F)cc1)c1cccs1	832 s
O=C(C1CCCN(c2ncnc3c2nc2n3CCCCC2)C1)N1CCC(N2CCCCC2)CC1 (configuration not stated)	590 s
O=C(NC1CCCCCCC1)C1CCN(C(=O)c2cc(-c3cccnc3)n[nH]2)CC1	651 s
COc1ccc(NC(=O)C2CCN(S(=O)(=O)c3ccc4c(c3)NC(=O)C(C)O4)CC2)cc1Cl (configuration not stated)	853 s
CCc1cc2c(N3CCCC(C(=O)NCCCN4CCN(C)CC4)C3)ncnc2s1 (configuration not stated)	585 s
COc1ccc(C(=O)N2CCC3(CC2)NC(=O)c2ccc(Cl)cc2N3)cc1OC	692 s
CCn1c(=O)c(NCc2cc(F)ccc2F)nc2ccncc21	568 s
O=C(NCc1ccc2c(c1)OCO2)c1cn2c(n1)CCCC2	581 s
CCS(=O)(=O)N1CCCC(n2c(C)cnc2-c2ccncc2)C1 (configuration not stated)	565 s
Cc1ccc(N(C)C(=O)C2CCCN(c3ncnc4c3nc3n4CCCCC3)C2)cc1C (configuration not stated)	897 s
Cn1c(=O)c2c3c(cnc2n(C)c1=O)C(=O)CCC3	704 s

Other lines, results leading:

RP-LC retention time	SMILES
856 s	O=S(=O)(Nc1ccccc1F)c1ccc(-c2nnc(C3CCC3)o2)o1
754 s	CC1(c2nc(-c3ccccc3)no2)CCCN(Cc2ncon2)C1 (configuration not stated)
1060 s	Cc1ccccc1CNS(=O)(=O)c1c(C)sc(C)c1-c1n[nH]c(C)c1C
809 s	Cc1c(C)n(-c2ccccc2)c2ncn(CC(=O)NCc3ccco3)c(=O)c12
702 s	CCCNc1nc(-c2ccccc2Cl)nc2ccccc12
742 s	CCC(C)NC(=O)NCCC1CCN(S(=O)(=O)c2ccccc2)CC1 (configuration not stated)
787 s	O=C(Cc1nnc(-c2ccccc2)o1)NC1CCCCC1
1090 s	CCN(CC)c1nc2cc(C(=O)NCC(C)C)ccc2c(=O)n1Cc1ccccc1
974 s	CCc1ccccc1NC(=O)C1CCCN(S(=O)(=O)c2cc(-c3noc(C)n3)cs2)C1 (configuration not stated)
725 s	CCc1ccc(-n2nnc(C(=O)NCCOC)c2-c2ccncc2)cc1
944 s	Cc1ccc(NC(=O)N2CCc3c(c(-c4nnc(-c5ccc(F)cc5)o4)nn3C)C2)c(Cl)c1
770 s	O=C1CCCc2cc(S(=O)(=O)N3CCC(C(=O)Nc4cccc(F)c4)CC3)ccc2N1
937 s	CCCn1cc(S(=O)(=O)Nc2ccc(C)cc2)c2cccnc21
678 s	CC(=O)Nc1ccc(NC(=O)Cn2nc(C(=O)N3CCCCC3)c3ccccc32)cc1
670 s	Cc1oc(-c2[nH]ncc2C(=O)N(C)C)cc1S(=O)(=O)Nc1ccc(F)cc1
785 s	CCOc1ccc(NC(=O)C2CCCN2S(=O)(=O)c2cc3c(cc2Cl)NC(=O)CO3)cc1 (configuration not stated)
1020 s	CCc1nn2c(CNS(=O)(=O)c3ccc4c(c3)CCC4)c(-c3ccccc3)nc2s1
578 s	O=c1c(NCc2ccccn2)nc2ccncc2n1Cc1ccccc1
861 s	Cc1cccc(CN2CCCn3nc(C(=O)NCc4ccc5c(c4)OCO5)cc3C2=O)c1

RP-LC retention time	SMILES
1130 s	COc1cccc(C2Cn3nnc(-c4nc(-c5cccc(F)c5)no4)c3CO2)c1 (configuration not stated)
829 s	O=C(NC1CCCCCC1)c1ccc2c(c1)nc1n2CCN(Cc2ccccc2)C1=O
881 s	Cc1ccc(S(=O)(=O)NCC(=O)Oc2ccccc2C)cc1
724 s	Cc1ccc(S(=O)(=O)N2C[C@@H]3C[C@H](NC(=O)c4cccnc4)[C@H]2C3)cc1C
905 s	O=C(CSc1ncccn1)Nc1nc(-c2ccccc2)c(-c2ccccc2)o1
623 s	O=C(c1ccc(Oc2ccccc2)cc1)N1CC(c2nc3ccccc3[nH]2)C1
659 s	COc1ccc(-c2nc3ccccn3c2NC(=O)c2cccc([N+](=O)[O-])c2)cc1
775 s	O=C(Nc1nnc(-c2ccco2)o1)c1ccc2c(c1)CCCC2
903 s	O=S(=O)(c1ccc2c(c1)CCCC2)N1CCN(c2ccc(-c3ccco3)nn2)CC1
884 s	CCCN1C(=O)COc2ccc(-c3noc(CNS(=O)(=O)c4ccc(F)cc4)n3)cc21
832 s	Cc1cccc(CC(=O)N2C[C@@H]3C[C@H]2C[C@@H]3NS(=O)(=O)c2ccccc2)c1
769 s	CC(NC(=O)c1cc(=O)[nH]c2ccc(Br)cc12)c1ccccc1 (configuration not stated)
864 s	O=C(Cn1cccc(-c2nc(-c3ccccc3)no2)c1=O)Nc1ccc(F)cc1F
1020 s	CC(C)n1c(=O)sc2cc(S(=O)(=O)N3CCC(C(=O)Nc4ccc(F)c(F)c4)CC3)ccc21
1170 s	CCOc1ccc(CNC(=O)c2sccc2S(=O)(=O)N(C)c2ccc(OCC)cc2)cc1
718 s	O=C(C1CC(=O)N(c2n[nH]c3cccc(F)c23)C1)N1CCN(c2ccccc2)CC1 (configuration not stated)
1040 s	CCc1ccc(S(=O)(=O)N2CCc3c(c(-c4nnc(-c5ccccc5F)o4)nn3C)C2)cc1
1020 s	O=C(NCc1cccc(Cl)c1)C1CCCN(c2nccnc2Oc2ccccc2)C1 (configuration not stated)
792 s	CCN(Cc1ccccc1)c1ccc(-c2noc(CN3CCCC(C)C3)n2)cn1 (configuration not stated)
